In one test the target is T1, ALK5 (Homo sapiens, UniProt P36897).
T1 sequence (P36897 34-503): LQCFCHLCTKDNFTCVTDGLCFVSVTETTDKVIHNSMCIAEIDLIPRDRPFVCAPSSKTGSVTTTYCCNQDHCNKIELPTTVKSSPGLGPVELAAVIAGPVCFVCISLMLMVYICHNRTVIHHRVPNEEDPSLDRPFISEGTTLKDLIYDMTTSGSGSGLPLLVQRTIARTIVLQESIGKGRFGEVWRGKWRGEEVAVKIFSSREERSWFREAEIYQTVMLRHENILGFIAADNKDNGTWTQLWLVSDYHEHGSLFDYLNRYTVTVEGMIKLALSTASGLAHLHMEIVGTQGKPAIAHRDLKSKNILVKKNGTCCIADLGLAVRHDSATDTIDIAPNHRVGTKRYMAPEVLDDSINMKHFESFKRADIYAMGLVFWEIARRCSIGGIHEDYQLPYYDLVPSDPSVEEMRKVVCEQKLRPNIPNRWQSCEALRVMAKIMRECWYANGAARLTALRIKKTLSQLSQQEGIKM
As to the kind of experiment: LanthaScreen Eu Kinase Binding Assay, ALK5. Conditions: 10-point titration, read-out: Kinase Inhibition: ALK5 IC50 (Lantha). How it is done: Selected compounds of the present disclosure were assayed for inhibitory activity against ALK5 and ALK2. Activity determinations and selectivity were conducted by Thermo Fisher Scientific SelectScreen™ Biochemical Kinase Profiling Service using their LanthaScreen™ Eu Kinase Binding Assay Screening.
Binding of an Alexa Fluor™ conjugate or “tracer” to a kinase is detected by addition of a Eu-labeled anti-tag antibody. Binding of the tracer and antibody to a kinase results in a high degree of FRET, whereas displacement of the tracer with a kinase inhibitor results in a loss of FRET. This assay is carried out by mixing the compound tested with the reagents and reading; no development step is required.
Life Technologies' Kinase Tracers are based on ATP-competitive kinase inhibitors, making them suitable for detection of any compounds that bind to the ATP site. Inhibitors that bind the ATP site include both Type I kinase inhibitors, which bind solely to the ATP site, and Type II inhibitors (e.g., Gleevec®/Imatinib, Sorafenib, BIRB-796), which bind to both the ATP site and a second site often referred to as the allosteric site.
The test compounds were screened in 1% DMSO (final) in the well. For 10-point titrations, 3-fold serial dilutions were conducted from the starting concentration (see Table 2 below).
All Kinase/Antibody Mixtures were diluted to a 2× working concentration in the specified kinase buffer. The 4× AlexaFluor labeled Tracer was prepared in Kinase Buffer.
• Bar-coded, low volume, white, 384-well plate (Greiner Cat. #784207) • 1. 160 nL—100× Test Compound in 100% DMSO • 2. 3.84 μL—Kinase Buffer • 3. 8.0 μL—2× Kinase/Antibody Mixture • 4. 4.0 μL—4× Tracer • 5. 30-second plate shake • 6. 60-minute incubation at room temperature • 7. Read on fluorescence plate reader and analysis of the data
The following controls were made for each individual kinase and were located on the same plate as the kinase:
100% Displacement Control: The minimum Emission Ratio was established by the 100% Displacement Control wells, which contained the highest concentration of the known inhibitor used in that assay.
Known Inhibitor: A known inhibitor control standard curve, 10-point titration, was run for each individual kinase on the same plate as the kinase to ensure the inhibitor was displaced within an expected IC50 range previously determined.
The following equations were used for each set of data points: […]
Data generated were plotted using the graphing software XLfit from IDBS. The dose response curve was curve fit to model number 205.
In general terms: In TR-FRET formats the signal depends on donor and acceptor labels being close together.

The subject of test [1] is TGF-β1-induced SMAD signaling pathway. Put plainly: RD SMAD reporter (RDSR) assay. The note with it: Homo sapiens; 200 pg/ml rhTGF-beta1, 24 h. Format: cell-based. The text has this:
TGF-beta (also referred to as TGF-β1) is a multifunctional, highly conserved cytokine with many key functions in development, cell growth and apoptosis, and plays a key role in the tissue repair response and functions as a potent immune modulator. TGF-β signaling is triggered when the activated TGF-β homodimer binds to the TGF-β receptor 2, which in turn leads to the recruitment and phosphorylation of TGF-β receptor 1 (ALK5). Activated TGF-β receptor 1 phosphorylates the signal transduction molecules SMAD2 and SMAD3. These bind to common mediator SMAD4 and translocate to the nucleus where they bind to short conserved DNA sequences called the SMAD binding element and induce the transcription of various target genes.
A stable cellular reporter, the RD SMAD reporter (RDSR), was generated to test the ability of certain compounds disclosed herein to inhibit the canonical TGF-β1-induced SMAD signaling pathway in a cellular context. The RD SMAD reporter (RDSR) cell line was generated by stably integrating the SMAD cellular reporter plasmid (Promega, pGL4.48[luc2P/SBE/Hygro]) into the human rhabdomyosarcoma cell line RD (ATCC, CCL-136). Once SMAD signaling was triggered with, for example, the addition of TGF-beta1, receptor-activated SMADs bind the SMAD binding elements (SBEs) leading to the expression of intracellular luciferase.
The rhabdomyosarcoma line RD (ATCC, CCL-136) was transfected with a SMAD reporter vector (Promega, E3671) and a polyclonal stable cell line was selected using hygromycin B. The transfected vector contained three copies of a Smad-binding element (SBE) that drives transcription of the luciferase reporter gene luc2P (Photinus pyralis). luc2P is a synthetically-derived luciferase sequence with humanized codon optimization that is designed for high expression and reduced anomalous transcription. The luc2P gene contains hPEST, a protein destabilization sequence, which allows luc2P protein levels to respond more quickly than those of luc2 to induction of transcription. The intracellular luciferase is quantified by the addition of equal volume (100 μl) of ONE-GLO substrate (Promega, E6120) and read within ten minutes on the Envision plate reader. The stable RDSR cell line was tested by evaluating the response to human TGF-beta1 (R&D Systems, 7754-BH-005) as well as myostatin (R&D Systems, 788-G8-010/CF) in a concentration-dependent manner after twenty-four hours of stimulation. […] For compound evaluation, the tool compounds (vactosertib and PF-06952229 (a TGFβR1 inhibitor available from MedChem Express HY-136244) were included as positive controls) or test compounds were incubated with cells for one hour at 37° C. then stimulated with 200 pg/ml rhTGF-beta1 for twenty-four hours. The activity of the reporter was determined with the addition of ONE-GLO (Promega) substrate, and luminescence counts were collected on the Envision plate reader (Perkin Elmer). The IC50 or EC50 was calculated using nonlinear regression curve fitting with graph pad prism software.
A comparative RDSR analysis was performed using IC50 values for selected compounds and standards obtained using the RDSR assay protocol described in Example 3.
The tool compounds vactosertib (an ALK5 inhibitor sourced from MedChem Express, HY-19928) and PF-06952229 (a TGFβR1 inhibitor) were included in the study as comparator compounds. Selected example compounds or comparator compounds were incubated with cells for one hour at 37° C. then stimulated with 200 pg/ml rhTGF-beta1 for twenty-four hours. The activity of the reporter was determined by adding ONE-GLO (Promega) substrate, and collecting luminescence counts on the Envision plate reader (Perkin Elmer).
Each of the example compounds and comparator compounds were tested at drug concentrations of from 20 micromolar to 1 nanomolar, and the IC50 value for each was calculated using Graph Pad Prism software. DMSO was used as a negative control and all wells contained normalized DMSO concentrations. […]

A further test relates to JAK signaling. Put plainly: JAK selectivity assay, HEK blue IL-12 reporter. The note with it: HEK-Blue, 24 h, 12.5 ng/ml IL-12, 24 h. Format: cell-based. How it is done: The cells were purchased from Invivogen (Catalog Nr: hkb-il12) and maintained according to vendor instructions. On the day of the experiment, cells were harvested by repeated tapping of the flask to shake loose the cells attached to the bottom of the flask. Then, cells were harvested, washed and resuspended in DMEM media supplemented with 10% fetal calf serum. 30 Microliters of cell suspension was seeded into a 384-well tissue culture-coated plate containing approximately 10,000 total cells. […] Using the ECHO “Dose Response” software, the test compound was added in duplicate wells with a 3-fold dilution curve. DMSO was back-filled to normalize the DMSO across all wells. […] After 30 minutes of incubation at room temperature, the optical density was measured at 620 nanometer using the Perkin Elmer Envision plate reader. A color change can be detected at this wavelength when secreted alkaline phosphatase, which is triggered by IL-12 signaling, is present in the supernatant. […]

Another test concerns A549 lung fibroblasts. As to the kind of experiment: Epithelial to mesenchymal transition gene expression in A549. Conditions: 5 ng/ml TGF-beta1, 48 h, up to 5 micromolar. The test is classed as cell-based. The protocol:
To evaluate whether Compounds 01 and 04 could inhibit epithelial to mesenchymal transition (EMT), an in vitro model using A549 lung fibroblasts was utilized. A549 cells were purchased from ATCC (CCL-185), and grown in RPMI media supplemented with 10 percent fetal bovine serum (FBS). On the day of the experiment, ten thousand A549 cells were seeded in eighty microliters total volume into a flat, tissue culture coated, ninety-six-well plate. Drugs, including positive control compounds vactosertib, PF-06952229 and LY3200882, were added in an eight point, one to three dilution series with the highest concentration of each drug being five micromolar, bringing the total volume of each well to ninety microliters. DMSO, which served to dissolve the 10 millimolar stock solution of each drug, was normalized across all wells After one hour of drug pretreatment, recombinant human TGF-beta1 was added to a final concentration of five nanograms per milliliter, bringing the volume to one hundred microliters. Recombinant human TGF-beta 1 was purchased from R&D Systems (7754-BH-005) and its stock solution was prepared according to manufacturer's instructions and diluted in RPMI media supplemented with 10% FBS. The ninety-six well plate with one hundred microliter volume was incubated at 37° C. at 5% CO2 for forty-eight hours. At the end of the incubation period, gene expression levels of various EMT markers were assessed using a custom designed QuantiGene Plex Gene Expression Assay. The genes chosen were CDH1 (E-cadherin), CDH2 (N-Cadherin), SNAI1 (Snail), SNAI2 (Slug), VIM (Vimentin), SPARC, GALNT6, CTNNB1 (beta-catenin), TGFB1, and MAML3.
Briefly, cell lysate was prepared using the QuantiGene Sample Processing Kit —Cultured Cells (QS0100) in the ninety-six well plate. Cell lysates were then subjected to bead hybridization, multiple probe hybridization steps and SAPE labeling following manufacturer's instruction. The plate was read on a Luminex MAGPIX instrument.

The structures appear in SMILES notation.

Consider `Cc1cccc2c(Nc3ccnc(Nc4cccc(C5CCOCC5)c4)c3)cnnc12` [Compound 07, N4-(8-methylcinnolin-4-yl)-N2-[3-(oxan-4-yl)phenyl]pyridine-2,4-diamine], for which the IC50 – broadly, the concentration at which inhibition is half-maximal – at ALK5 is 2 to 5 nM. Also, in test [1], the EC50 (in general, the concentration that produces a half-maximal response) fell in the range of 50 to 100 nM. For `Cc1cnc(Nc2ccc(OCCN3CCCC3)cc2)nc1Nc1cccc(S(=O)(=O)NC(C)(C)C)c1` [Fedratinib, fedratinib], the IC50 in the test on JAK signaling is less than 300 nM. `Cc1nn(CC(F)(F)F)cc1Nc1cc(Nc2cnnc3c(Cl)cccc23)ccn1` [Compound 02, N2-[3-methyl-1-(2,2,2-trifluoroethyl)-1H-pyrazol-4-yl]-N4-(8-chlorocinnolin-4-yl)pyridine-2,4-diamine]: at ALK5, the IC50 was less than 5 nM. The same compound came in with an EC50 in test [1] of 50 to 100 nM.

On to `Cc1cccc2c(Nc3ccnc(Nc4ccc(C5CCOCC5)cc4)c3)cnnc12` [Compound 08, N4-(8-methylcinnolin-4-yl)-N2-[4-(oxan-4-yl)phenyl]pyridine-2,4-diamine], for which the IC50 on ALK5 was 2 to 5 nM. This compound also displayed an EC50 in test [1] of less than 50 nM. `CC(C)(O)c1cc(Nc2cc(Oc3cn(C4CC4)nc3C3CCOCC3)ccn2)ccn1` [LY3200882, reference compound]: in the test with A549 lung fibroblasts, the “CDH1 (E-Cadherin) gene expression” value is reported as “inhibition of downregulation of CDH1 (E-Cadherin)” and the “expression of the nine genes induced with EMT (CDH2, SNAI1, SNAI2, VIM, SPARC, GALNT6, CTNNB1, TGFB1, MAML3)” value was “inhibition of induction of the nine genes that are induced with EMT”. Regarding `Cc1cccc2c(Nc3ccnc(Nc4cccc(N5CCOCC5)c4)c3)cnnc12` [Compound 03, N4-(8-methylcinnolin-4-yl)-N2-[3-(morpholin-4-yl)phenyl]pyridine-2,4-diamine], the IC50 at ALK5 fell in the range of 2 to 5 nM. In addition, the EC50 in test [1] is less than 50 nM. For `Cc1cccc2c(Nc3ccnc(Nc4ccc(N5CCN(C)CC5)cc4)c3)cnnc12` [Compound 06, N4-(8-methylcinnolin-4-yl)-N2-[4-(4-methylpiperazin-1-yl)phenyl]pyridine-2,4-diamine] the same measures were 2 to 5 nM and less than 50 nM. Take `CC(C)c1cnc(-c2cc(Cl)ccc2F)cc1Nc1ccncc1C(=O)NC(CO)CO` [PF-06952229, reference compound]: in the test with A549 lung fibroblasts, the “CDH1 (E-Cadherin) gene expression” value is reported as “inhibition of downregulation of CDH1 (E-Cadherin)” and the “expression of the nine genes induced with EMT (CDH2, SNAI1, SNAI2, VIM, SPARC, GALNT6, CTNNB1, TGFB1, MAML3)” value is given as “inhibition of induction of the nine genes that are induced with EMT”.
